Measurements reported in patent publication US8383139B2 (Bayer CropScience AG, priority 2008, dated 2013).

Columns and labels:
[1] = log P by HPLC on reversed-phase columns (C 18), EEC Directive 79/831 Annex V.A8; type: physicochemical; conditions: reversed-phase C18 HPLC column, pH 2.3, [a] HPLC, acid region pH 2.3, 0.1% aqueous phosphoric acid and acetonitrile; read-out: log p
Uromyces appendiculatus = assay: Uromyces test (beans)/protective; type: in vivo; conditions: 240 h, 100 ppm active substance, protective, evaluation 10 days after inoculation, read-out: degree of effectiveness
How it was run: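 Young bean plants were sprayed with compound (acetone/dimethylacetamide/emulsifier concentrate diluted in water), dried, then inoculated with U. appendiculatus spores. They were held 1 day at ~20 °C, 100% RH, then kept in a greenhouse at ~21 °C, ~90% RH. Efficacy was scored at 10 days post-inoculation (0% = control, 100% = no infestation).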

Puccinia triticina = Puccinia triticina test (wheat)/protective; type: in vivo; conditions: 192 h, 500 ppm active substance, protective, evaluation 8 days after inoculation, read-out: degree of effectiveness
How it was run: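 Protective test: young wheat plants sprayed with compound (in N,N-dimethylacetamide/emulsifier, diluted in water) at the stated rate, dried, then inoculated with Puccinia triticina spores; 48 h at 20 °C, 100% RH, then greenhouse ~20 °C, ~80% RH. Efficacy scored 8 days post-inoculation, 0% = untreated control, 100% = no infestation.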

Alternaria solani = assay: Alternaria test (tomato)/protective; type: in vivo; conditions: 72 h, 100 ppm active substance, protective, evaluation 3 days after inoculation, read-out: degree of effectiveness
Septoria tritici = Septoria tritici test (wheat)/protective; type: in vivo; conditions: Zymoseptoria tritici, 504 h, 500 ppm active substance, protective, evaluation 21 days after inoculation, read-out: degree of effectiveness
How it was run: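 Young wheat plants sprayed with compound in dimethylacetamide/emulsifier-water, then inoculated with S. tritici spores once dry. Kept 48 h at 20 °C/100% RH, 60 h at 15 °C/100% RH, then greenhouse ~15 °C/80% RH. Scored 21 days post-inoculation as % efficacy versus untreated control.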

Phakopsora pachyrhizi = assay: Phakopsora test (soybean)/protective; type: in vivo; conditions: 264 h, 500 ppm active substance, protective, evaluation 11 days after inoculation, read-out: degree of effectiveness
Method: • Solvent: 28.5 parts by weight of acetone • Emulsifier: 1.5 parts by weight of polyoxyethylene alkylphenyl ether (polyoxy-ethylene (16) tristearylphenyl ether)
To prepare a suitable active substance composition, 1 part by weight of active substance is mixed with the given amounts of solvent and emulsifier and the concentrate is diluted to the desired concentration using water.
For the testing of protective effectiveness, young plants are sprayed with the active substance composition at the application rate given. One day after the spraying, the plants are sprayed with an aqueous suspension of spores of Phakopsora pachyrhizi. The plants remain in a greenhouse at 20° C. and 80% relative humidity.
Evaluation is carried out 11 days after the inoculation. In this connection, 0% means a degree of effectiveness corresponding to that of the control, while a degree of effectiveness of 100% means that no infestation is observed.

Sphaerotheca fuliginea = assay: Sphaerotheca test (cucumber)/protective; type: in vivo; conditions: Podosphaera fuliginea, 168 h, 500 ppm active substance, protective, evaluation 7 days after inoculation, read-out: degree of effectiveness
How it was run: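 Young cucumber plants sprayed at the stated rate with active substance in DMF/alkylaryl polyglycol ether emulsifier diluted in water, then inoculated with Sphaerotheca fuliginea spores one day later. Kept in greenhouse at 70% relative humidity, 23° C.; scored 7 days post-inoculation as % efficacy (0% = untreated control, 100% = no infestation).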

For `CCN(C)C=Nc1cc(C)c(Oc2nc(Cc3ccccc3OC)ns2)cc1C` [Example 49, N-ethyl-N′-(4-{[3-(2-methoxybenzyl)-1,2,4-thiadiazol-5-yl]oxy}-2,5-dimethylphenyl)-N-methylimidoformamide], which chromatographic logP [1] is on record?
The chromatographic logP was 1.83.

And the pest or weed control at 100 ppm (Uromyces appendiculatus)?
The pest or weed control at 100 ppm was no less than 70%.

And the pest or weed control at 500 ppm (Puccinia triticina)?
Its pest or weed control at 500 ppm is no less than 70%.

What about the pest or weed control at 100 ppm (Alternaria solani) of the same compound?
Its pest or weed control at 100 ppm is no less than 70%.

What about the pest or weed control at 500 ppm (Septoria tritici) of the same compound?
Its pest or weed control at 500 ppm is no less than 70%.

What about the pest or weed control at 500 ppm (Phakopsora pachyrhizi) of the same compound?
The pest or weed control at 500 ppm was no less than 80%.

And the pest or weed control at 500 ppm (Sphaerotheca fuliginea)?
The pest or weed control at 500 ppm was no less than 70%.

What does the source list for `CCN(C)C=Nc1cc(C)c(Oc2nc(Cc3ccc(F)cc3F)ns2)cc1C` [Example 52, N′-(4-{[3-(2,4-difluorobenzyl)-1,2,4-thiadiazol-5-yl]oxy}-2,5-dimethylphenyl)-N-ethyl-N-methylimidoformamide]?
chromatographic logP [1]: 1.94; pest or weed control at 100 ppm (Uromyces appendiculatus): ≥ 70%; pest or weed control at 500 ppm (Puccinia triticina): ≥ 70%; pest or weed control at 100 ppm (Alternaria solani): ≥ 70%; pest or weed control at 500 ppm (Septoria tritici): ≥ 70%; pest or weed control at 500 ppm (Phakopsora pachyrhizi): ≥ 80%; pest or weed control at 500 ppm (Sphaerotheca fuliginea): ≥ 70%
